Results: patent publication US12514928B2, “Herboxidiene antibody-drug conjugates and methods of use” (Eisai R&D Management Co., Ltd., priority 2018, dated 2026)

Legend:
NCIH1650.1 = experiment: Herboxidiene splicing modulator cell potency, CTGlo-ATS, NCIH1650.1, 72 h; assay type: cell-based; conditions: for CTGIo-ATS GMean LD50 (nM) 72 h NCIH1650.1 / CTGIo-ATS Mean MinResponse % 72 h NCIH1650.1: payload; for GI50: read-out: CTGIo-ATS GMean GI50 (nM) 72 h NCIH1650.1
[1] = Chemical stability of ADC payload in Mcilvane buffer pH 5.5; assay type: physicochemical; conditions: payload 20 μM, pH 5.5, 37° C.; for half-life at 20 μM: McIlvaine (citrate-phosphate) buffer, read-out: Stability Mean Stability t½ pH 5.5 (converted); for Stability Mean Stability % pH 5.5 t 24 h: % remaining at 24 h
Protocol: 3.5.3 Chemical Stability of ADC Payload
Herboxidiene splicing modulators were incubated in Mcilvane (Citrate-Phosphate) buffer, pH 5.5 (Boston Bioproducts; #BB-2466) at a final concentration of 20 μM (less than 0.5% DMSO from stock solution). The herboxidiene splicing modulator solution and the internal standard were pipetted into 96-well plates, ran on UPLC (Waters Acquity H class), and analyzed for initial chromatographic signal (t=0). The column was a Waters UPLC HSS T3 1.8 μm 2.1×50 mm column (#186003538). A gradient of mobile phase A from 95% to 10% was employed over 1 min, where A was 0.1% formic acid in water and mobile phase B was 0.1% formic acid in acetonitrile (flow rate 0.9 mL/min). The remainder of the herboxidiene splicing modulator solution was kept in a plate shaker at 37° C. (Eppendorf ThermoMixer). Sample analyses by UPLC were repeated at 24, 72, and 96 hours post-incubation at 37° C. The area ratio response of the herboxidiene splicing modulator and internal standard was determined for three time points: time 0, day 1, and either day 3 or day 4. Time 0 was set to 100. The area ratio responses of the later time points were compared to time 0. Percent remaining was calculated as follows: (Area Ratio day X/Area Ratio time 0)*100=% remaining. The slope of the line was calculated in Excel comparing the log of % remaining and time point.

[2] = Caco-2 permeability of ADC payload; assay type: in vitro ADME; conditions: human; for efflux ratio at 2 h, 10 μM: B-A/A-B, read-out: ER; for Papp A→B at 2 h, 10 μM / Papp B→A at 2 h, 10 μM: payload at 10 μM; for Papp A→B at 2 h, 10 μM: apical to basolateral, read-out: Permeability Mean Caco-2 A-B Perm; for Papp B→A at 2 h, 10 μM: head incomplete (column between A-B and ER)
Protocol: 3.5.2 Caco-2 Permeability of ADC Payload
Caco-2 cells were cultured for 21 days in transwell 24-well plates at 37° C., 95% humidity, 5% CO2. Integrity of cell monolayer was confirmed by TEER (transepithelial electrical resistance) and Lucifer yellow. Payloads were spiked in duplicate at 10 μM, separately, on both sides of the cell monolayer. Permeability rates from the apical to basolateral (A-B) direction and the basolateral to apical (B-A) direction were determined by sampling aliquots from both chambers immediately after treatment (t=0) and following incubation for 2 hours. Samples were protein precipitated with organic solvent containing internal standard and analyzed by LC-MS/MS (SCI EX; API 5500). The area ratio responses of payload/internal standard over time in both directions were used to generate permeability (cm/sec) values. Efflux ratio was calculated by dividing B-A/A-B. Control compounds for low and high permeability and efflux behaved as expected.

SF3b complex = SF3b complex (Homo sapiens, UniProt O75533+Q7RTV0); experiment: Payload binding to the SF3b complex (SF3B1 binding); conditions: SF3B1 (WT), HELA.2, read-out: SPA-ATS GMean IC50 (nM) SF3B1 (WT) HELA.2
Protocol: Exemplary herboxidiene spliceosome modulator payloads used in the preparation of ADCs were profiled. Payloads were evaluated for binding to the SF3b complex, in vitro splicing activity, and ability to inhibit cell growth.

THP1.1 = experiment: Herboxidiene splicing modulator cell potency, CTGlo-ATS, THP1.1, 72 h; assay type: cell-based; conditions: for CTGIo-ATS GMean LD50 (nM) 72 h THP1.1 / CTGIo-ATS Mean MinResponse % 72 h THP1.1: payload; for GI50: read-out: CTGIo-ATS GMean GI50 (nM) 72 h THP1.1
Ad2.1 = experiment: In vitro splicing (IVS) assay, qPCR-IVS-ATS, Ad2.1 substrate, HELA.2; assay type: biochemical; conditions: payload, read-out: qPCR-IVS-ATS GMean IC50 (nM) Ad2.1 HELA.2
Ad2.2 pre-mRNA = experiment: In vitro splicing (IVS) assay with HeLa nuclear extract, RT-qPCR of spliced product; assay type: biochemical; conditions: payload, HELA.2, read-out: qPCR-IVS-ATS GMean IC50 (nM) Ad2.2 HELA.2
Protocol: 2.1 In Vitro Splicing (IVS)
To evaluate payload activity in a cell-free system, an in vitro splicing assay was performed. The payloads were incubated with nuclear extracts and pre-mRNA substrate minigenes.
HeLa nuclear extract preparation: HeLa S3 cell pellets were resuspended in hypotonic buffer (10 mM HEPES pH 7.9, 1.5 mM MgCl2, 10 mM KCl, 0.2 mM PMSF, 0.5 mM DTT) and the suspension was brought up to a total of 5 packed cell volume (PCV). After centrifugation, the supernatant was discarded, and the cells were brought up to 3 PCV with hypotonic buffer and incubated on ice for 10 min. Cells were lysed using a dounce homogenizer and then centrifuged. The supernatant was discarded, and the pellet was resuspended with […] packed nuclear volume (PNV) of low salt buffer (20 mM HEPES pH 7.9, 1.5 mM MgCl2, 20 mM KCl, 0.2 mM EDTA, 25% glycerol, 0.2 mM PMSF, 0.5 mM DTT), followed by 1/2 PNV of high salt buffer (same as low salt buffer except 1.4 M KCl). The nuclei were gently mixed for 30 min before centrifuging. The supernatant (nuclear extract) was then dialyzed into storage buffer (20 mM HEPES pH 7.9, 100 mM KCl, 0.2 mM EDTA, 20% glycerol, 0.2 mM PMSF, 0.5 mM DTT). Protein concentration was determined using NanoDrop 8000 UV-Vis spectrophotometer (ThermoFisher Scientific).
IVS: All Ad2-derived sequences (Pellizzoni et al. (1998) Cell 95(5):615-24) were cloned into pcDNA3.1(+) vector (Promega) using 5′ EcoRI and 3′ Xbal restriction sites. The plasmids were linearized using Xbal and used as DNA templates in in vitro transcription reactions. The FtzΔi intron-less plasmid (Luo and Reed (1999) 96(26):14937-42) was linearized using EcoRI. All RNAs were in vitro transcribed and then purified using MEGAScript T7 (Invitrogen) and MegaClear (Invitrogen) kits, respectively. For splicing reactions using Ad2 variant pre-mRNAs, […] were prepared using 8 μg nuclear extracts prepared from HeLa S3, 2 ng pre-mRNA, 0.2 ng FTZΔi, and varying concentrations of compounds or DMSO. After a 15 min pre-incubation at 30° C., 1 μL splicing activation buffer (0.5 mM ATP, 20 mM creatine phosphate, 1.6 mM MgCl2) was added, and the reactions were incubated for 90 min at 30° C. The reactions were then quenched with 13 μL DMSO, and 25 nL was used for RT-qPCR. RT-qPCR reactions were prepared using TaqMan RNA-to-CT 1-step kit (Life Technologies), RNA from splicing reactions, Ad2 (forward: […]; reverse: […]; probe: CTGTTGGGCTCGCGGTTG) and Ftz (forward: […]; reverse: […]; probe: […]) mRNA primer-probe sets. Prism 7 (Graphpad) was used for non-linear regression curve fitting of the formed spliced product and normalized to the control (DMSO) sample.

[3] = in vivo; cited from earlier work

Compound | CTGIo-ATS GMean LD50 (nM) 72 h NCIH1650.1 (NCIH1650.1) [nM] | CTGIo-ATS Mean MinResponse % 72 h NCIH1650.1 (NCIH1650.1) [%] | GI50 (NCIH1650.1) [nM] | half-life at 20 μM [1] [h] | Stability Mean Stability % pH 5.5 t 24 h [1] [%] | efflux ratio at 2 h, 10 μM [2] | Papp A→B at 2 h, 10 μM [2] [×10⁻⁶ cm/s] | Papp B→A at 2 h, 10 μM [2] [×10⁻⁶ cm/s] | IC50 (SF3b complex) [nM] | CTGIo-ATS GMean LD50 (nM) 72 h THP1.1 (THP1.1) [nM] | CTGIo-ATS Mean MinResponse % 72 h THP1.1 (THP1.1) [%] | GI50 (THP1.1) [nM] | IC50 (Ad2.1) [nM] | IC50 (Ad2.2 pre-mRNA) [nM] | plasma half-life [3]
CO[C@H]([C@@H](C)[C@H]1O[C@]1(C)C[C@H](C)/C=C/C=C(\C)[C@H]1O[C@@H](CC(=O)O)C[C@@H](OC(=O)N2CCNCC2)[C@@H]1C)[C@@H](C)O [Compound H1, 2-((2R,4R,5S,6S)-6-((S,2E,4E)-7-((2R,3R)-3-((2R,3R,4R)-4-hydroxy-3-methoxypentan-2-yl)-2-methyloxiran-2-yl)-6-methylhepta-2,4-dien-2-yl)-5-methyl-4-((piperazine-1-carbonyl)oxy)tetrahydro-2H-pyran-2-yl)acetic acid] | >10000 | 10.179 | 182 | 84 | 79 | 1.27 | 0.263 | 0.334 | 11.7 | 697.273 | −84.238 | 114 | 72.6 | 33.7 | –
CO[C@H]([C@@H](C)[C@H]1O[C@]1(C)C[C@H](C)/C=C/C=C(\C)[C@H]1O[C@@H](CNC(=O)CCCCCOC(=O)N2CCNCC2)CC[C@@H]1C)[C@@H](C)O [Compound H5, 6-((((2R,5S,6S)-6-((S,2E,4E)-7-((2R,3R)-3-((2R,3R,4R)-4-hydroxy-3-methoxypentan-2-yl)-2-methyloxiran-2-yl)-6-methylhepta-2,4-dien-2-yl)-5-methyltetrahydro-2H-pyran-2-yl)methyl)amino)-6-oxohexyl piperazine-1-carboxylate] | >10000 | −25.308 | 0.407 | > 168 | >100 | 22.7 | 1.04 | 23.6 | 12.9 | 3.415 | −103.352 | 0.433 | 30.3 | 17.8 | –
Ipilimumab: fully human anti-CTLA4 antibody, IgG1 | – | – | – | – | – | – | – | – | – | – | – | – | – | – | 288 to 336 h
tremelimumab: fully human anti-CTLA4 antibody, IgG2 | – | – | – | – | – | – | – | – | – | – | – | – | – | – | approximately 22 days
